Here are results for nine molecules from patent publication US8420591B2, “MUC1 and galectin-3” (Dana-Farber Cancer Institute, Inc., priority 2006, dated 2013).

One data set relates to EGFR and MUC1 clustering. Briefly: Confocal microscopy of EGF-induced colocalization of EGFR and MUC1 in ZR-75-1 cells. It counts as cell-based, human. Particulars: EGF for 5 min. The method, then:
(§1) Cell culture. Human breast cancer (ZR-75-1, BT549) and lung cancer (CRL-5985, CRL-5909) cells were grown in RPMI1640 medium supplemented with 10% fetal bovine serum (FBS), 100 units/ml penicillin and 100 μg/ml streptomycin. The human breast cancer ([…], MCF-7), prostate cancer (LnCAP, DU145, PC3), lung cancer (A549), kidney epithelial (293) and Chinese hamster ovary (CHO-K1) cells were cultured in Dulbecco's Modified Eagle's medium (DMEM) supplemented with 10% FBS, antibiotics and 1 mM L-glutamine. The glycosylation deficient CHO-Lec2 and CHO-Lec8 cells (ATCC, Manassas, Va.) were grown in alpha minimum essential medium containing 10% FBS and antibiotics. In certain studies, cells were cultured in medium with 0.1% FBS for 24 hours and then stimulated with 100 ng/ml epidermal growth factor (EGF) (Calbiochem-Novabiochem, La Jolla, Calif.) for 5 minutes at 37° C.
Immunofluorescence microscopy. Cells were fixed in 3.7% formaldehyde, permeabilized in 0.2% Triton™ X-100 and post-fixed in 3.7% formaldehyde. The cells were blocked with 10% normal goat serum and stained with antibodies specific for MUC1-N (MAb DF3) and antibodies specific for EGFR (Santa Cruz Biotechnology, Santa Cruz, Calif.), followed by fluorescein-conjugated antibodies specific for rabbit IgG or Texas Red-conjugated antibodies specific for mouse IgG (Jackson ImmunoResearch Laboratories, West Grove, Pa.). […]

In data set [1] the test system is MUC1 and EGFR interaction. Briefly: EGF-stimulated association of MUC1 and EGFR in ZR-75-1 cells (anti-MUC1-N precipitates immunoblotted). The class given is cell-based, human. Particulars: EGF for 5 min, co-immunoprecipitation. The method, then: as §1
Immunoblotting and precipitates. Lysates were prepared from subconfluent cells as described (Li et al., 2001). Immunoblot analysis was performed with antibodies specific for MUC1-C (Ab5; Neomarkers, Fremont, Calif.), galectin-3 (Abcam, Cambridge, Mass.), β-actin (Sigma-Aldrich, St. Louis, Mo.), epidermal growth factor receptor (EGFR) (Santa Cruz Biotechnology, Santa Cruz, Calif.), and MUC1-N (DF3) (Ren et al., 2004). Immune complexes were prepared as described with antibodies specific for MUC1-C and MUC1-N (Li et al., 1998). […]

The target in the next data set is T1, MUC1-C/ED (Homo sapiens, UniProt P15941).
T1 construct: made in house; host or cells: CHO-K1
T1 sequence (P15941 1098-1155): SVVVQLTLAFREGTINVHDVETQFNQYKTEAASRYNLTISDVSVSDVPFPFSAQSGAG
Briefly: In vitro binding assay: hFc-MUC1-C/ED incubated with GST-galectin-3 deletion mutants, glutathione pull-down. The note with it: immunoblot anti-MUC1-C/ED. The method, then: (§2) In vitro binding assays. hFc and hFc-MUC1-C/ED were incubated with purified galectin-3 in lysis buffer for 1 hour at 4° C. The reaction products were precipitated with protein G-Sepharose™ and immunoblotted with anti-galectin-3. In other studies, hFc-MUC1-C/ED was incubated with GST-galectin-3 deletion mutants. The reaction products were precipitated with glutathione-sepharose 4B and immunoblotted with anti-MUC1-C/ED (Ren et al., 2004).

In data set [2] the test system is miR-322. Kind of data set: Galectin-3 mRNA stability assay after actinomycin D in transfected BT549/vector cells. It counts as cell-based, human. The note with it: BT549/vector cells transfected with oligo, then actinomycin D; quantitative RT-PCR. The method, then:
mRNA stability assays. […] Total RNA was isolated and analyzed for galectin-3 and GAPDH mRNA levels by quantitative RT-PCT. The half life of galectin-3 mRNA was calculated using linear regression analysis. Antisense inhibition of miR-322. An antisense 2'-O-methyl oligoribonucleotide […] NO:20) against miR-322 and a scrambled 2'-O-methyl oligoribonucleotide […] NO:21) (Integrated DNA Technologies) were transfected into BT549 cells (50 pmol/10,000 cells) in the presence of LipofectamineTM 2000. At 72 hours after transfection, the cells were analyzed for galectin-3 expression.

The subject of data set [3] is miR-322. Kind of data set: Antisense inhibition of miR-322: galectin-3 expression in BT549/vector cells. It counts as cell-based, human. The note with it: 72 h after transfection. The method, then: Immunoblotting and precipitates. Lysates were prepared from subconfluent cells as described (Li et al., 2001). Immunoblot analysis was performed with antibodies specific for MUC1-C (Ab5; Neomarkers, Fremont, Calif.), galectin-3 (Abcam, Cambridge, Mass.), β-actin (Sigma-Aldrich, St. Louis, Mo.), epidermal growth factor receptor (EGFR) (Santa Cruz Biotechnology, Santa Cruz, Calif.), and MUC1-N (DF3) (Ren et al., 2004). Immune complexes were prepared as described with antibodies specific for MUC1-C and MUC1-N (Li et al., 1998). For GST “pull-down” assays, GST or GST-galectin-3 was incubated with cell lysates for 2 hours at 4° C. and precipitated with glutathione-Sepharose™ 4B. Precipitates were subjected to immunoblotting with anti-MUC1-C, anti-galectin-3 (Santa Cruz Biotechnology, Santa Cruz, Calif.), anti-MUC1-N (DF3) (Ren et al., 2004), anti-EGFR (Santa Cruz Biotechnology), or anti-β-actin.
Quantitative real-time PCR. […] Quantification of galectin-3 transcripts was performed with primer pairs […] […] Relative gene expression was determined using the comparative ddCT (threshold) method with GAPDH as the internal control.
Antisense inhibition of miR-322. […] At 72 hours after transfection, the cells were analyzed for galectin-3 expression.

The target of data set [4] is T2, purified recombinant galectin-3 (Homo sapiens, UniProt P17931, P64H/T98P).
T2 construct: GST fusion proteins with full-length galectin-3 or certain deletion mutants were prepared; made in house; host or cells: E. coli
T2 sequence (P17931 whole entry P64H/T98P, the tested form may be a part): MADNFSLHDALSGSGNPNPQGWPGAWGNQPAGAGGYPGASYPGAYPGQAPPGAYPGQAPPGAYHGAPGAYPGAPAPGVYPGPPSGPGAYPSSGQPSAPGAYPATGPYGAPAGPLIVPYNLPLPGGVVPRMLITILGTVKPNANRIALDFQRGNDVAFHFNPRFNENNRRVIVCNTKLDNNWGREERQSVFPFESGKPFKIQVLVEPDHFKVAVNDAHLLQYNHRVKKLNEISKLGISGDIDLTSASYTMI
Kind of data set: In vitro binding assay: hFc proteins incubated with purified galectin-3, protein G precipitation, anti-galectin-3 immunoblot. The note with it: 1 hour at 4° C.; protein G-Sepharose precipitation. The protocol:
as §2

The next data set has as its target T3, galectin-3(63-250) (Homo sapiens, UniProt P17931, T98P).
T3 construct: made in house; host or cells: E. coli
Briefly: Surface plasmon resonance (BIAcore): binding of MUC1-C/ED to immobilized galectin-3(63-250). The note with it: galectin-3(63-250) immobilized on sensor chip, 25° C., 1:1 binding with a drifting base model, read-out: dissociation constant (KD) for binding to galectin-3(63-250). The protocol: (§3) Surface plasmon resonance analysis. Surface plasmon resonance measurements were determined using a BIACORE™ 3000 instrument at 25° C. Galectin-3 and galectin-3(63-250) were covalently coupled to CM5 Biacore™ sensor chips (500-1000 RU) at 30 μg/ml using the Biacore™ Amine Coupling kit. hFc-MUC1-C/ED and hFc diluted in running buffer (50 mM Tris-HCl, pH 7.4, 150 mM NaCl, 0.005% NP-40) were injected across galectin-3, galectin-3(63-250) or control flow cells at a rate of 30 μl/min. Regeneration of the sensor surface was performed with a 30-second pulse of 100 mM lactose. Association and dissociation kinetic constants were calculated by BIAevaluation™ software using 1:1 binding with a drifting base model.

A further data set concerns the target T4, galectin-3 (Homo sapiens, UniProt P17931).
T4 construct: GST fusion proteins with full-length galectin-3 or certain deletion mutants were prepared; made in house; host or cells: E. coli
Briefly: Surface plasmon resonance (BIAcore): binding of MUC1-C/ED to immobilized galectin-3. The note with it: galectin-3 immobilized on sensor chip, 25° C., 1:1 binding with a drifting base model, read-out: dissociation constant (KD) for binding to galectin-3. The method, then:
as §3

Where no end group is shown, it is not given here.

T3 sequence (P17931 with tags, fused parts or gaps T98P): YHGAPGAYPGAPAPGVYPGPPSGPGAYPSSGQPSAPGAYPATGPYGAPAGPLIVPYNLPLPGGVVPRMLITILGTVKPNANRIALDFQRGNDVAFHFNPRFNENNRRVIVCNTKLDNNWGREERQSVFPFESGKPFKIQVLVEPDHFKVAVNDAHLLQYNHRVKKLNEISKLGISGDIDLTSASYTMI
T4 sequence (P17931 whole entry P64H/T98P, the tested form may be a part): as the sequence (P17931 whole entry P64H/T98P, the tested form may be a part) above

With `OC[C@H]1O[C@@H](O[C@H]2[C@H](O)[C@@H](O)C(O)O[C@@H]2CO)[C@H](O)[C@@H](O)[C@H]1O` (stereo partly drawn) [lactose], the “EGF-induced colocalization of EGFR and MUC1 in clusters” value in the data set on EGFR and MUC1 clustering is “blocked”. Also, in data set [1], the “EGF-stimulated binding of MUC1 and EGFR” value is on record as “attenuated”.
The like results for `OC[C@H]1O[C@@](CO)(O[C@H]2O[C@H](CO)[C@@H](O)[C@H](O)[C@H]2O)[C@@H](O)[C@@H]1O` [sucrose] were, in that order, “not sucrose” and “not sucrose”.
With “GST-galectin-3(1-62): GST fusion of galectin-3 deletion mutant 1-62 that includes the ND”, in the data set with MUC1-C/ED, the “binding of MUC1-C/ED to GST-galectin-3 fusion proteins (pull-down)” value is on record as “no detectable binding”.
As for “GST-galectin-3(1-138): GST fusion of galectin-3 deletion mutant 1-138 that includes the ND”, the “binding of MUC1-C/ED to GST-galectin-3 fusion proteins (pull-down)” value with MUC1-C/ED was “no detectable binding”.
Still for that read-out and setting: next, “GST-galectin-3(63-250): GST fusion of galectin-3 amino acids 63-250 that contains the CRD”: “pulled-down”; “GST-galectin-3: GST fusion protein with full-length galectin-3”: “pulled-down”.
Turning to “anti-miR-322: antisense 2′-O-methyl oligoribonucleotide (GGUAUAGCAGCGCCUCACGUUUUG) (SEQ ID NO:20) against miR-322 (all 2'-O-methyl, backbone not given here)”, in the data set on miR-322 [2], the “half-life of galectin-3 transcripts” value is reported as 19.5 h. Moreover, the “galectin-3 expression at the protein level” value in the data set with miR-322 [3] (immunoblotting) is on record as “upregulates”. Besides, the “galectin-3 expression at the mRNA level” value in the data set with miR-322 [3] (quantitative RT-PCR) is reported as “upregulates”.
“hFc-MUC1-C/ED: MUC1-C extracellular domain (58 amino acids) fused to human Fc, secreted from CHO-K1 cells (SVVVQLTLAFREGTINVHDVETQFNQYKTEAASRYNLTISDVSVSDVPFPFSAQSGAG; not fully specified (N-terminus); also: fused to dimerising human Fc)”: the “binding of purified recombinant galectin-3 (immunoblot of adsorbates)” value in data set [4] is on record as “binding of galectin-3 to hFc-MUC1-C/ED”. The Kd in the data set with galectin-3(63-250) worked out at 9.8 nM; with galectin-3 it was 11.1 nM.
As to “scrambled oligo: scrambled 2′-O-methyl oligoribonucleotide (CACGGAUCUAGGUCGUAACGUAGG) (SEQ ID NO:21), control (all 2'-O-methyl, backbone not given here) [reference compound]”, the “half-life of galectin-3 transcripts” value in the data set with miR-322 [2] is 13.0 h.
